Tested on: Phytophthora infestans, strain resistant to phenylalanine
Conditions: listed phosphite salt(s) alone at 750 ppm equivalent phosphorous acid, potato plants, scale 100 to 0

`O=[PH]([O-])[O-].[Cu+2]` [CuHPO3, copper (II) salt of phosphorous acid] was tested, and the “Activity (y)” value was 12.
